From publication PMC7470982 (2020) come the findings set out here.

The structures appear in SMILES notation.

The test system of test [1] is bio-C-KIT (DNA, i motif) CCCTCCTCCCAGCGCCCTCCCT
The experiment in a line: SPR. The following applies: 100 mM KCl; 20 mM MES, pH 5.5, 25 °C; immobilised DNA.

Test [2] concerns Fpy27 (DNA, i motif) CCTTCCCCACCCTCCCCACCCTCCCCA
The experiment in a line: MST. The following applies: 100 mM KCl, potassium phosphate 60 mM; 1× BPES (1 mM EDTA), pH 5.5, 25 °C.

For test [3], the system named is bio-py39 (DNA, i motif) CAGCCCCGCTCCCGCCCCCTTCCTCCCGCGCCCGCCCCT
Put plainly: SPR. The settings on record: 100 mM KCl; 20 mM MES, pH 5.5, 25 °C; immobilised DNA.

Test [4] has as its system FKRAST (DNA, i motif) GCCCGGCCCCCGCTCCTCCCCCGCCGGCCCGGCCCGGCCCCCTCCTTCTCCCCG
The experiment in a line: FRET melting. The following applies: 100 mM KCl, potassium phosphate 60 mM; 1× BPES, pH 5.5; 0.2 μM DNA, 4 μM compound.

Test [5] has as its system GC duplex (py39+pu39) (DNA, duplex) CAGCCCCGCTCCCGCCCCCTTCCTCCCGCGCCCGCCCCT/AGGGGCGGGCGCGGGAGGAAGGGGGCGGGAGCGGGGCTG
Put plainly: TO fluorescent intercalator displacement. The settings on record: 20 mM NaCl; 20 mM Tris-HCl, pH 7.4; 1 μM DNA, 1 μM thiazole orange displaced.

In test [6] the test system is py39 (DNA, i motif) CAGCCCCGCTCCCGCCCCCTTCCTCCCGCGCCCGCCCCT
Put plainly: TO fluorescent intercalator displacement. The following applies: K+ (1x BPES: 100 mM KCl, potassium phosphate); 1x BPES pH 5.5; 1 μM DNA, 1 μM thiazole orange displaced.

The subject of test [7] is hairpin (DNA, hairpin) CGCGCGCGTTTTCGCGCGCG
Put plainly: TO fluorescent intercalator displacement. The settings on record: 1 μM DNA, 1 μM thiazole orange displaced.

The subject of test [8] is VEGF (DNA, i motif) GACCCCGCCCCCGGCCCGCCCCGG
The experiment in a line: CD melting. The settings on record: 100 mM KCl, potassium phosphate 60 mM; 1× BPES, pH 5.5; 1 μM DNA, 20 μM compound.

The test system of test [9] is Fpy39 (DNA, i motif) CAGCCCCGCTCCCGCCCCCTTCCTCCCGCGCCCGCCCCT
Put plainly: MST. The following applies: 100 mM KCl, potassium phosphate 60 mM; 1× BPES (1 mM EDTA), pH 5.5, 25 °C.

Test [10] concerns pu39 (DNA, G4) AGGGGCGGGCGCGGGAGGAAGGGGGCGGGAGCGGGGCTG
Put plainly: TO fluorescent intercalator displacement. The settings on record: K+ (100 mM KCl); 20 mM Tris-HCl pH 7.4; 1 μM DNA, 1 μM thiazole orange displaced.

Test [11] deals with FC-KITT (DNA, i motif) CCCTCCTCCCAGCGCCCTCCCT
Put plainly: FRET melting. The following applies: 100 mM KCl, potassium phosphate 60 mM; 1× BPES, pH 5.5; 0.2 μM DNA, 4 μM compound.

Test [12] relates to py39 (DNA, i motif) CAGCCCCGCTCCCGCCCCCTTCCTCCCGCGCCCGCCCCT
The experiment in a line: ITC. The settings on record: 100 mM KCl, potassium phosphate 60 mM; 1× BPES (1 mM EDTA), pH 5.5, 25 °C; fitted to 1:1 model.

The subject of test [13] is py27 (C-MYC) (DNA, i motif) CCTTCCCCACCCTCCCCACCCTCCCCA
The experiment in a line: ITC. The following applies: 100 mM KCl, potassium phosphate 60 mM; 1× BPES (1 mM EDTA), pH 5.5, 25 °C; fitted to 1:1 model.

Test [14] deals with bio-VEGF (DNA, i motif) GACCCCGCCCCCGGCCCGCCCCGG
Put plainly: SPR. The following applies: 100 mM KCl; 20 mM MES, pH 5.5, 25 °C; immobilised DNA.

In test [15] the test system is Fpy27T (F-C-MYC-T) (DNA, i motif) CCTTCCCCACCCTCCCCACCCTCCCCA
Put plainly: FRET melting. The following applies: 100 mM KCl, potassium phosphate 60 mM; 1× BPES, pH 5.5; 0.2 μM DNA, 4 μM compound.

Test [16] concerns FVEGFT (DNA, i motif) GACCCCGCCCCCGGCCCGCCCCGG
The experiment in a line: FRET melting. The settings on record: 100 mM KCl, potassium phosphate 60 mM; 1× BPES, pH 5.5; 0.2 μM DNA, 4 μM compound.

Test [17] relates to bio-hairpin (DNA, hairpin, HEG (non-nucleotide) linker between nucleotides 10 and 11) TATAGCTATATATAGCTATA
Put plainly: SPR. The settings on record: 100 mM KCl; 20 mM Tris-HCl, pH 7.4, 25 °C; immobilised DNA.

Test [18] deals with Fpy39T (DNA, i motif) CAGCCCCGCTCCCGCCCCCTTCCTCCCGCGCCCGCCCCT
The experiment in a line: FRET melting. The following applies: 100 mM KCl, potassium phosphate 60 mM; 1× BPES, pH 5.5; 0.2 μM DNA, 4 μM compound.

In test [19] the test system is C-KIT (DNA, i motif) CCCTCCTCCCAGCGCCCTCCCT
Put plainly: CD melting. The following applies: 100 mM KCl, potassium phosphate 60 mM; 1× BPES, pH 5.5; 1 μM DNA, 20 μM compound.

For test [20], the system named is py27 (C-MYC) (DNA, i motif) CCTTCCCCACCCTCCCCACCCTCCCCA
The experiment in a line: CD melting. The settings on record: 100 mM KCl, potassium phosphate 60 mM; 1× BPES, pH 5.5; 1 μM DNA, 20 μM compound.

Test [21] concerns bio-py27 (bio-C-MYC) (DNA, i motif) CCTTCCCCACCCTCCCCACCCTCCCCA
The experiment in a line: SPR. The following applies: 100 mM KCl; 20 mM MES, pH 5.5, 25 °C; immobilised DNA.

The subject of test [22] is KRAS (DNA, i motif) GCCCGGCCCCCGCTCCTCCCCCGCCGGCCCGGCCCGGCCCCCTCCTTCTCCCCG
The experiment in a line: CD melting. The following applies: 100 mM KCl, potassium phosphate 60 mM; 1× BPES, pH 5.5; 1 μM DNA, 20 μM compound.

In test [23] the test system is py39 (DNA, i motif) CAGCCCCGCTCCCGCCCCCTTCCTCCCGCGCCCGCCCCT
The experiment in a line: CD melting. The settings on record: 100 mM KCl, potassium phosphate 60 mM; 1× BPES, pH 5.5; 1 μM DNA, 20 μM compound.

One may read the KD as the constant that tells how readily two partners part at equilibrium. A word on the ΔTm: it is the change in melting temperature against a reference sample. Turning to `Cc1ccc2c(c1)c(=O)c1cc(C(=O)NCCCN3CCOCC3)ccc1n2-c1ccc(C(=O)NCCCN2CCOCC2)cc1`, the KD in test [1] turned out to be 34.5 µM; in test [2], 10.95 µM; in test [3], 3.56 µM; in test [9], 4.69 µM; in test [12], 5.52 µM; in [13], 11.1 µM. Moreover, the KD in [14] is 36.4 µM; in [17], above 50 µM; in test [21] it was 11.95 µM. The shift in melting temperature (ΔTm) in test [4] is 1.17 °C; in test [8] it was 1.34 °C; in test [11], -0.52 °C; in test [15], 3.50 °C; in test [16], -0.64 °C; in test [18] it was 9.15 °C. Besides, the thermal shift (ΔTm) in test [19] was 0.20 °C; in test [20], 4.26 °C; in test [22] it was 1.03 °C; in test [23], 9.63 °C. Further, the “relative TO displacement ratio” value is reported as 6% in test [5], 52% in test [6] and 12% in [7]. In test [10], the relative replacement ratio amounted to 10%.
